Counter-ions that a name gives are not always drawn.
Experiments:
[1] = test system: CYP-induced visceral pain; assay: Acute administration in CYP-induced visceral pain in rats (Von Frey mechanical threshold); format: in vivo, rat; conditions: 2 hours after administration, versus pre-treatment
Procedure: Female Sprague Dawley rats (Crl:CD(SD)BR, 250-350 g) from Charles River Italy were used in these experiments. Animals were housed with free access to food and water and maintained on a forced 12 hours light-dark cycle at 22-24° C. for at least one week before the experiments were carried out. The animals were handled according to internationally accepted principles for care of laboratory animals (E.E.C. Council Directive 86/609, […]. 18, 1986). Cyclophosphamide, 75 mg/kg i.p. for 3 times, every 3rd day, was dissolved in distilled water and administered to animals by i.p. route (volume 5 mL/kg). Appropriate weight of Compd. 1 or Compd. 2 was dissolved in saline, all doses of test compounds were administered by oral gavage (volume 2 mL/kg). On the day of the experiment, each rat was placed individually in a clear plastic testing box with a grid floor and allowed to acclimatize for at least 10 min. Visceral sensitivity in response to mechanical stimuli was determined using Von Frey monofilaments (1-2-4-8-15-26-60-100 g) applied in the lower abdominal area (close to the urinary bladder) and on both hind paws plantar surface (to evaluate referred pain). Each Von Frey monofilament was applied 5 times at the level of abdomen and 3 times at the level of each paw, in an ascending order of strength at interval of 5 sec. A stimulus-induced response was considered positive when the paw was sharply withdrawn, paw licking occurred, or the animal flinched upon removal of the filament. Behavioral testing on animals was performed at 3 different times: • before CYP administration (in order to acquire basal values) • after CYP administration, before treatment with the test compound, to verify the pathology (in order to acquire pre-treatment values) • after CYP administration, after treatment (in order to acquire post-treatment values) […] The test was performed in blind. Compd. 1 and Compd. […]

CYP-induced cystitis [2] = assay: Cystometrographic recordings in conscious rats with CYP-induced cystitis; format: in vivo, rat; conditions: 24 hours after CYP 175 mg/kg i.p.
Procedure: Female Sprague Dawley rats (Crl:CD(SD)BR, 250-350 g bw) from Charles River Italy were used in these experiments. Animals were housed with free access to food and water and maintained on a forced 12 hours light-dark cycle at 22-24° C. for at least one week before the experiments were carried out.
Rats, anaesthetized with equithensin solution (2 ml/kg i.p.), were placed in a supine position and an approximately 10 mm midline incision was made in the shaved and cleaned abdominal wall. The urinary bladder was gently freed from adhering tissues, emptied and then cannulated, via an incision at the dome, with a polyethylene cannula (Portex, ID 0.58 mm, OD 0.96 mm), which was permanently sutured with silk thread. The cannula was exteriorized through a subcutaneous tunnel in the retroscapular area, where it was connected with a plastic adapter, in order to avoid the risk of removal by the animal.
For drugs testing, rats were utilized one day after catheter implantation at about 24 hours after administrations CYP.
On the day of the experiment, the rats (fasted overnight) were placed in Bollman's cages; after a stabilization period of 20 min, the free tip of the cannula was connected by a T-shape tube to a pressure transducer and to a peristaltic pump for a continuous infusion of saline solution (room temperature) into the urinary bladder, at the constant rate of 0.05 ml/min. This procedure, termed cystometry, allows the detection of continuous cycles of filling and voiding of the bladder named cystometrograms.
From the cystometrograms acquired by the Biopac System and recorded on a PC the Bladder Volume Capacity (BVC) parameter was calculated as volume capacity, defined as volume (in ml) infused into the bladder and necessary to induce detrusor contraction followed micturition.
Basal BVC was evaluated as mean values from the cystometrograms recorded in 30-60 minutes of time prior the treatment (“BASAL”). Then the bladder infusion was stopped, the animals were treated orally with the test compound or vehicle and, after restarting continuous bladder filling with saline for 4 or 5 hours, BVC values after administration were collected.
BVC parameters were recorded from the cystometrogram over a 4/5 hours period post-dose.

CXCR1/CXCR2 = conditions: cited from earlier work
[3] = test system: CYP-induced visceral pain; assay: Chronic preventive treatment in CYP-induced visceral pain model in rats; comparison with Mesna; format: in vivo, rat; conditions: 12.5 mg/kg i.p. several times a day for 3 days
Procedure: The effect of chronic preventive administration of Compd. 1 in a visceral pain model induced by repeated administration of cyclophosphamide (CYP) in conscious rats was evaluated.
The oral dose of 7 mg/kg of Compd. 1 was chosen on the basis of previous evaluations. Compd. 1 or vehicle was orally administered to animals twice daily (according to the PK profile of the molecule) for 7 days. Mesna_or vehicle was intraperitoneally administered several times a day for 3 days (when CYP was administered).
Repeated treatment with CYP (75 mg/kg i.p. for 3 times, every 3rd day), induced a strong decrease in withdrawal thresholds to noxious stimulus measured at the level of low abdomen and hind-paws. Nociceptive hypersensitivity was evaluated. In the control group, nociceptive thresholds of abdomen and hind-paws were not altered after the treatment with vehicle.
Behavioral testing was performed at 4 different times: • before CYP administration (in order to acquire basal values) • after CYP administration and before treatment with the tested compound, to verify the pathology (in order to acquire pre-treatment values) • after treatment, 42 or 48 hours from the last administration of Compd. 1 or Mesna.

CYP-induced cystitis [4] = assay: Microscopic examination of urinary bladders after chronic preventive administration; format: in vivo, rat; conditions: preventive Mesna treatment
Text: At the end of the study, the urinary bladders were opened, placed in 10% buffered formalin and stored at room temperature until completion of hystomorphological analysis (see Example 6 below).
At the end of the efficacy study of chronic preventive administration, the urinary bladders were opened, placed in 10% buffered formalin and stored at room temperature until hystomorphological analysis.
Treatment with Compd. […] 1.

[5] = test system: CYP-induced visceral pain; assay: Chronic administration in CYP-induced visceral pain in rats (Von Frey withdrawal threshold); format: in vivo, rat; conditions: 40-80 mg/kg p.o., systemic
Procedure: Cyclophosphamide, 75 mg/kg i.p. for 3 times, every 3rd day, was dissolved in distilled water and administered to animals by i.p. route (volume 5 mL/kg). Appropriate weight of Compd. 1 or Compd. 2 was dissolved in saline, all doses of test compounds were administered by oral gavage (volume 2 mL/kg).
On the day of the experiment, each rat was placed individually in a clear plastic testing box with a grid floor and allowed to acclimatize for at least 10 min. Visceral sensitivity in response to mechanical stimuli was determined using Von Frey monofilaments (1-2-4-8-15-26-60-100 g) applied in the lower abdominal area (close to the urinary bladder) and on both hind paws plantar surface (to evaluate referred pain).
Each Von Frey monofilament was applied 5 times at the level of abdomen and 3 times at the level of each paw, in an ascending order of strength at interval of 5 sec. A stimulus-induced response was considered positive when the paw was sharply withdrawn, paw licking occurred, or the animal flinched upon removal of the filament.
• before CYP administration (in order to acquire basal values) • after CYP administration and before treatment, to verify the pathology (in order to acquire pre-treatment values) • after chronic treatment, about 18 hours after last administration of Compd. 1 (in order to acquire post-treatment values). • after chronic treatment, 2 hours after the last administration of Compd. 1 (in order to acquire post-treatment values after chronic+acute administration)
Compd. 1 or vehicle was administered p.o. to animals twice daily (according to the pharmacokinetic profile of the compound) for 6 days, starting from 24 hours after last treatment with CYP, when painful symptoms were well established. Nociceptive hypersensitivity was evaluated about 18 hours after the last administration of Compd. 1 (or vehicle) in order to evaluate the effect of chronic administration, or a further dosage of compound was administered and evaluation carried out 2 hours thereafter, in order to compare with acute protocol, described in Example 1.

## C[C@@H](C(=O)NS(C)(=O)=O)c1ccc(OS(=O)(=O)C(F)(F)F)cc1 [Compd. 2, R(−)-2-[(4′-trifluoromethanesulfonyloxy)phenyl]-N-methanesulfonyl propionamide]
[1]; 10 mg/kg p.o.
  mechanical threshold, abdomen and hind paws: statistically significant increase in mechanical threshold only in the abdomen
[1]; 30 mg/kg p.o.
  mechanical threshold, abdomen and hind paws: statistically significant increase in mechanical threshold in both the abdomen and paws area
CYP-induced cystitis [2]; 20 mg/kg oral
  bladder volume capacity (BVC): showed efficacy on BVC
CYP-induced cystitis [2]; 30 mg/kg oral
  bladder volume capacity (BVC): showed efficacy on BVC
CXCR1/CXCR2
  CXCR1/CXCR2 inhibition: potent and selective dual CXCR1/CXCR2 non-competitive allosteric inhibitor

## O=S(=O)(O)CCS [Mesna, 2-mercaptoethene sulfate, reference compound]
[3]
  CYP-induced nociceptive behavior: did not produce a reduction of CYP-induced nociceptive behavior
CYP-induced cystitis [4]
  protective effect on the CYP-induced cystitis: did not exert any protective effect

## NCC1(CC(=O)O)CCCCC1 [gabapentin, reference compound]
[5]
  antinociceptive effect: partial maximum antinociceptive effect

— US12150933B2, “IL-8 inihibitors for use in the treatment of some urological disorders” (DOMPÉ FARMACEUTICI S.P.A., priority 2015, dated 2024)
